Source: patent publication US20220024877A1 (Kansas State University Research Foundation, priority 2018, published 2022)
In brackets after ≈: the same amount, converted by molar mass. Read-outs that look alike come from different tables or passages of the source.

How the values were obtained:
S. aureus strain 1471 = test: Drop assay against S. aureus strain 1471 with or without copper; details: Staphylococcus aureus, 1471, read-out: MIC: +50 μM Cu
Experimental: For the drop assay, bacteria were grown in wells with or without copper, using a 1:2 drug titration starting at 10 μM.

[1] = system: multi-drug resistant Gram-positive bacteria; details: current antibiotics, background section; cited from earlier work
[2] = system: Avirulent Mtb strain mc26206 (H37Rv ΔpanCD ΔleuCD, double auxotroph); test: microbe, parasite or virus in culture; format: cell-based; details: Mycobacterium tuberculosis
[3] = Copper(I) binding constant of NNSN compounds (1H-NMR titration with CuBr in D4-methanol); details: for Copper (I) binding constant: Table I; for Binding constant: Cu-NNSN 1:1 stoichiometry
Experimental: They were recorded in D4-methanol by means of adding aliquots of a 5 mmol CuBr stock solution in D4-methanol to the 1 mmol NNSN-compound, resulting in 0, 0.5, 1.0, 2.0 and 3.0 mmol CuBr concentration in D4-methanol.

MRSA = test: In vitro activity against S. aureus (MRSA), MIC with or without Cu supplementation; details: for MIC: Staphylococcus aureus, MRSA; for MIC* against MRSA: kinetic data (determined from bacteria growth experiments), resulting in IC50 values similar to MIC values
Experimental: S. aureus was inoculated in Mueller-Hinton medium from frozen stocks and grown for 2-4 h (until reaching an OD600˜1) at 37° C. while shaking. Once the OD was reached, bacteria were harvested and diluted in Phenolred-free RPMI1640 medium to an OD of 0.01 (=inoculum). Test compounds where diluted from frozen DMSO-stocks were diluted in Phenolred-free RPMI1640 medium with or without Cu supplementation (100 μM) and serially diluted in 96-well plates in the same medium to achieve a final concentration of between 0.08 and 10 μM after addition of an equal volume of inoculum. Medium-only controls and growth controls in the absence of test compounds were also included. The plates were placed in sealed bags and incubated at 37° C. After 15-20 h incubation time, an OD600 reading was taken and analyzed. […] If kinetic data were required, resazurin was added to each well. Using a plate reader with incubation chamber, resazurin conversion was monitored by fluorescence reading every 20 min for up to 24 h. After normalizing the data to respective controls, the MIC was determined using the same definition as above.

[4] = read-out: MIC* against MRSA (μM), kinetic data (determined from bacteria growth experiments), resulting in IC50 values similar to MIC values

For S=C(Nc1cccc(Cl)c1)Nc1ccn(C(=S)Nc2cccc(Cl)c2)n1 [SB57, N-(3-chlorophenyl)-3-(3-(3-chlorophenyl)thioureido)-1H-pyrazole-1-carbothioamide], the MIC (S. aureus strain 1471) was 0.6 µM (≈ 0.253 µg/mL).
In the case of Daptinomycin, the “minimum inhibitory concentrations (MICs)” value [1] is given as 0.6 µM.
Compound Cc1ccn(C(=S)Nc2ccccc2Cl)n1 [SB60, N-(2-chlorophenyl)-3-methyl-1H-pyrazole-1-carbothioamide] has an MIC (S. aureus strain 1471) of 1.25 µM (≈ 0.315 µg/mL).
Work on Nc1ccn(C(=S)Nc2ccc(N=C=S)cc2)n1 [SB79, 3-amino-N-(4-isothiocyanatophenyl)-1H-pyrazole-1-carbothioamide] yielded an IC50 ([2]; read-out: IC50 +Cu) of over 100 µM, an IC50 ([2]; read-out: IC50 −Cu) of over 100 µM and an MIC90 ([2]; read-out: MIC90 +Cu) of over 100 µM. It also gave an MIC90 ([2]; read-out: MIC90 −Cu) of over 100 µM.
In the case of Teicoplanin, the “minimum inhibitory concentrations (MICs)” value [1] is given as 0.8 to 1.0 µM.
CN(C(=S)Nc1ccccc1Cl)c1ccn(C(=S)Nc2ccccc2Cl)n1 [SB55, N-(2-chlorophenyl)-3-(3-(2-chlorophenyl)-1-methylthioureido)-1H-pyrazole-1-carbothioamide] showed an MIC (S. aureus strain 1471) of 10 µM (≈ 4.36 µg/mL).
Work on O=[N+]([O-])c1cnn(C(=S)Nc2cccc(Cl)c2)c1 [SB59, N-(3-chlorophenyl)-4-nitro-1H-pyrazole-1-carbothioamide] yielded an MIC (S. aureus strain 1471) of 2.5 µM (≈ 0.707 µg/mL).
In the case of COC(=O)c1ccn(C(=S)Nc2ccccc2Cl)n1 [SB73], the “Copper (I) binding constant” value [3] is reported as 985.27 M⁻¹ and the MIC (MRSA; [4]) is reported as 5 µM (≈ 1.48 µg/mL).
In the case of S=C(Nc1ccc(Cl)cc1)n1cccn1 [listing 1 of 2 here], the “Binding constant” value [3] is reported as 2100 M⁻¹, the “Copper (I) binding constant” value [3] is reported as 2100 M⁻¹ and the MIC (MRSA; organism not named there) is reported as 5 µM (≈ 1.19 µg/mL). For the same compound, the “MIC* against MRSA” value (MRSA) was 5.0 µM (≈ 1.19 µg/mL).
With S=C(Nc1ccc(Cl)cc1)n1cccn1 [listing 2 of 2 here] the “Copper (I) binding constant” value [3] was 1434 M⁻¹ and the “MIC* against MRSA” value (MRSA) was 1.25 µM (≈ 0.297 µg/mL).
In the case of Fc1ccc(NC(=S)n2cccn2)cc1 [SB23, N-(4-fluorophenyl)-1H-pyrazole-1-carbothioamide], the “Binding constant” value [3] is reported as 22057 M⁻¹ and the MIC (MRSA; organism not named there) is reported as over 10 µM.
Work on S=C(Nc1ccccc1Cl)n1ccc(OCc2ccccc2)n1 [SB64, 3-(benzyloxy)-N-(2-chlorophenyl)-1H-pyrazole-1-carbothioamide] yielded an IC50 ([2]; read-out: IC50 +Cu) of 0.8 µM, an IC50 ([2]; read-out: IC50 −Cu) of over 100 µM and an MIC90 ([2]; read-out: MIC90 +Cu) of 1.6 µM (≈ 0.55 µg/mL). The MIC90 ([2]; read-out: MIC90 −Cu) was over 100 µM.
Work on S=C(Nc1ccccc1Cl)n1cccn1 [SB46, N-(2-chlorophenyl)-1H-pyrazole-1-carbothioamide] yielded an IC50 ([2]; read-out: IC50 +Cu) of 10 µM, an IC50 ([2]; read-out: IC50 −Cu) of over 100 µM and an MIC90 ([2]; read-out: MIC90 +Cu) of over 100 µM. It also gave an MIC90 ([2]; read-out: MIC90 −Cu) of over 100 µM and an MIC (MRSA; [4]) of 0.3 µM (≈ 0.0713 µg/mL).
For CN(C(=S)Nc1ccc(Cl)cc1)c1ccn(C(=S)Nc2ccc(Cl)cc2)n1 [SB45, N-(4-chlorophenyl)-3-(3-(4-chlorophenyl)-1-methylthioureido)-1H-pyrazole-1-carbothioamide], the IC50 ([2]; read-out: IC50 +Cu) was 2 µM, the IC50 ([2]; read-out: IC50 −Cu) was over 50 µM and the MIC90 ([2]; read-out: MIC90 +Cu) was 3.5 µM (≈ 1.53 µg/mL). For the same compound, the MIC90 ([2]; read-out: MIC90 −Cu) was over 100 µM and the MIC (MRSA; [4]) was under 0.016 µM.
In the case of O=[N+]([O-])c1ccc(NC(=S)n2cccn2)cc1 [SB21, N-(4-nitrophenyl)-1H-pyrazole-1-carbothioamide], the “Binding constant” value [3] is reported as 26063 M⁻¹ and the MIC (MRSA; organism not named there) is reported as 10 µM (≈ 2.48 µg/mL).
For Nc1cnn(C(=S)NCc2ccccc2Cl)c1 [SB62, 4-amino-N-(2-chlorobenzyl)-1H-pyrazole-1-carbothioamide], the MIC (S. aureus strain 1471) was 5 µM (≈ 1.33 µg/mL).
With Nc1ccn(C(=S)Nc2ccc(Br)cc2)n1 [SB33, 3-amino-N-(4-bromophenyl)-1H-pyrazole-1-carbothioamide] the “Copper (I) binding constant” value [3] was 5830 M⁻¹ and the MIC (MRSA; [4]) was 1.25 µM (≈ 0.371 µg/mL).
With CCOC(=O)c1ccn(C(=S)Nc2ccc(Cl)cc2)n1 [SB77] the “Copper (I) binding constant” value [3] was 1580.08 M⁻¹ and the MIC (MRSA; [4]) was 0.6 µM (≈ 0.186 µg/mL).
With Cc1ccc(NC(=S)n2cccn2)cc1 [SB25, N-(p-tolyl)-1H-pyrazole-1-carbothioamide] the “Copper (I) binding constant” value [3] was 1635 M⁻¹ and the MIC (MRSA; [4]) was 5 µM (≈ 1.09 µg/mL).
O=[N+]([O-])c1cnn(C(=S)Nc2ccccc2Cl)c1 [SB56, N-(2-chlorophenyl)-4-nitro-1H-pyrazole-1-carbothioamide] showed an MIC (S. aureus strain 1471) of 5 µM (≈ 1.41 µg/mL).
